The record followed here is US11267824B2, “Inhibitors of indoleamine 2,3-dioxygenase and/or tryptophan 2,3-dioxygenase” (IDORSIA PHARMACEUTICALS LTD, priority 2017, dated 2022).

Experiment [1] concerns the target Recombinant full-length human IDO1 (Homo sapiens (Human), UniProt P14902). The experiment in a line: IDO1 enzymatic assay (IDO inhibitory activity). The experiment is classed as biochemical. The following applies: 2 nM enzyme, 5 μM L-tryptophan, pH6.5, 30 min pre-incubation, NFK quantified by LCMS; mean values if measured multiple times; read-out: hIDO activity (IC50 in nM). An outline of the steps:
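N-His-tagged enzyme from E. coli at 2 nM in 37.5 mM phosphate pH6.5 with ascorbate, methylene blue, catalase; compounds 10 μM–0.5 nM, 0.6% DMSO, pre-incubated 30 min RT, then 5 μM L-tryptophan for 30 min RT. NFK quantified by LCMS against d5-tryptophan; IC50 from duplicate four-parameter fit, means where repeated.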

In experiment [2] the target is Recombinant human TDO comprising amino acids 19-407 (Homo sapiens (Human), UniProt P48775). The experiment is described as follows: TDO2 enzymatic assay (TDO inhibitory activity). The class given is biochemical. As to conditions: 15 nM enzyme, 200 μM L-tryptophan, pH7, 30 min pre-incubation, NFK quantified by LCMS; mean values if measured multiple times; read-out: hTDO activity (IC50 in nM). Put shortly:
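His-tagged enzyme (15 nM, E. coli-expressed) in pH 7 phosphate buffer with ascorbate, catalase, BSA, Tween 20, 0.6% DMSO; 30 min RT pre-incubation with compound (10 μM–0.5 nM), then 200 μM L-tryptophan for 30 min RT. N′-formylkynurenine quantified by LCMS against deuterated tryptophan; IC50 by four-parameter fit, duplicates.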

Recombinant full-length human IDO1, sequence (P14902 whole entry): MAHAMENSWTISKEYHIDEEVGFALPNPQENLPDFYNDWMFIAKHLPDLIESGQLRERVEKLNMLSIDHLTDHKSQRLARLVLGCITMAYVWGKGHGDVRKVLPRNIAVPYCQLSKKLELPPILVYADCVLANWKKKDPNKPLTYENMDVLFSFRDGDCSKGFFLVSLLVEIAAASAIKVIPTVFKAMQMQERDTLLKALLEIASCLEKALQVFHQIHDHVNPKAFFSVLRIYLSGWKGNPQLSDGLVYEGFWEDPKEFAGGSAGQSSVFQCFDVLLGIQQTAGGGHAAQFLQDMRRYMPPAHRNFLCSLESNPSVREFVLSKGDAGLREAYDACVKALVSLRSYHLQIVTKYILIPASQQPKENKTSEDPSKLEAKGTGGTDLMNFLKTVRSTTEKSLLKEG
Recombinant human TDO comprising amino acids 19-407, sequence (P48775 19-406 limits assumed): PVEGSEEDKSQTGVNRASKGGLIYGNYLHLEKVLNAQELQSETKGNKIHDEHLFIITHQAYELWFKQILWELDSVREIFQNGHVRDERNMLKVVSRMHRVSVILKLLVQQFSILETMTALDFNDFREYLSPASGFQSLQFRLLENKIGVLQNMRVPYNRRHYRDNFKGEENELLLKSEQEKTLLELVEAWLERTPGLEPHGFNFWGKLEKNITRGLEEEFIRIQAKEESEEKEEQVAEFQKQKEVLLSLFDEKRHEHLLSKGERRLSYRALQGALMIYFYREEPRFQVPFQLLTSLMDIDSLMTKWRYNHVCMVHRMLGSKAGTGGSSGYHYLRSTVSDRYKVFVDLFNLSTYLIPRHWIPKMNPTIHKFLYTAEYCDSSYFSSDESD

Broadly, the IC50 is the concentration that gives 50% inhibition. Consider `OC(CC1CCC2CCCCC2C1)c1c(C2CC2)sc2cncn12` (centres unmarked) [Example 101, 1-(2-Cyclopropyl-imidazo[5,1-b]thiazol-3-yl)-2-(decahydro-naphthalen-2-yl)-ethanol], for which the figures for the IC50 in experiment [1] and in experiment [2] were 485 nM and 1790 nM, respectively.

For `CCC1CCC(C(O)c2c(C3CC3)sc3cncn23)CC1` (racemic) [Example 45, rac-(2-Cyclopropyl-imidazo[5,1-b]thiazol-3-yl)-(4-ethyl-cyclohexyl)-methanol], the IC50 was found to be 35.7 nM in experiment [1] and 583 nM in experiment [2].

`CCc1sc2cncn2c1C(O)CC1CCCCC1` (racemic) [Example 100, rac-2-Cyclohexyl-1-(2-ethyl-imidazo[5,1-b]thiazol-3-yl)-ethanol]: the IC50 in experiment [1] amounted to 6.63 nM; in experiment [2], 299 nM.

For the molecule `CC1(C)CCCC(C(O)c2c(C3CC3)sc3cncn23)C1` (centres unmarked) [Example 69, (2-Cyclopropyl-imidazo[5,1-b]thiazol-3-yl)-(3,3-dimethyl-cyclohexyl)-methanol], the IC50 was found to be 40 nM in experiment [1] and 255 nM in experiment [2].

Turning to `Cc1sc2cncn2c1C(O)C#Cc1ccccc1` (racemic) [Example 158, rac-1-(2-Methyl-imidazo[5,1-b]thiazol-3-yl)-3-phenyl-prop-2-yn-1-ol], the IC50 in experiment [1] was 459 nM; in experiment [2] it was greater than 10200 nM.

On to `CC1(C)CCC(C(O)c2c(C3CC3)sc3cncn23)CC1` (racemic) [Example 26, rac-(2-Cyclopropyl-imidazo[5,1-b]thiazol-3-yl)-(4,4-dimethyl-cyclohexyl)-methanol], for which the figures for the IC50 in experiment [1] and in experiment [2] were 25.2 nM and 387 nM, respectively.

In the case of `CC(C1CCCCC1)C(O)c1c(C2CC2)sc2cncn12` (centres unmarked) [Example 82, 2-Cyclohexyl-1-(2-cyclopropyl-imidazo[5,1-b]thiazol-3-yl)-propan-1-ol], the IC50 came out at 87.3 nM in experiment [1] and 822 nM in experiment [2].

As to `CC1CCCC(CC(O)c2c(C(F)(F)F)sc3cncn23)C1` (centres unmarked) [Example 122, 2-(3-Methyl-cyclohexyl)-1-(2-trifluoromethyl-imidazo[5,1-b]thiazol-3-yl)-ethanol], the 50% inhibitory concentration (IC50) was 205 nM in experiment [1] and 3810 nM in experiment [2].

Turning to `OC(c1c(Cl)sc2cncn12)C1CCCCCC1` (racemic) [Example 17, rac-(2-Chloro-imidazo[5,1-b]thiazol-3-yl)-cycloheptyl-methanol], the IC50 was found to be 170 nM in experiment [1] and 301 nM in experiment [2].

In the case of `CCc1sc2cncn2c1C(O)C1CCCCC1` (racemic) [Example 96, rac-Cyclohexyl-(2-ethyl-imidazo[5,1-b]thiazol-3-yl)-methanol], the IC50 in experiment [1] worked out at 10.5 nM; in experiment [2], 39.9 nM.

For the molecule `CC1CCC(C(O)c2c(C(F)(F)F)sc3cncn23)C1` (centres unmarked) [Example 116, (3-Methyl-cyclopentyl)-(2-trifluoromethyl-imidazo[5,1-b]thiazol-3-yl)-methanol], the IC50 in experiment [1] came to 45.5 nM; in experiment [2], 701 nM.

Consider `Cc1sc2cncn2c1C(O)c1cn(C2CCCC2)nn1` (racemic) [Example 199, rac-(1-Cyclopentyl-1H-[1,2,3]triazol-4-yl)-(2-methyl-imidazo[5,1-b]thiazol-3-yl)-methanol], for which the IC50 in experiment [1] is 835 nM; in experiment [2] it was greater than 10200 nM.

Turning to `OC(CC1CCC(C(F)(F)F)CC1)c1c(C2CC2)sc2cncn12` (racemic) [Example 42, rac-1-(2-Cyclopropyl-imidazo[5,1-b]thiazol-3-yl)-2-(4-trifluoromethyl-cyclohexyl)-ethanol], the IC50 in experiment [1] turned out to be 92.2 nM; in experiment [2], 520 nM.

`OC(c1c(Cl)sc2cncn12)C1CC1` (racemic) [Example 19, rac-(2-Chloro-imidazo[5,1-b]thiazol-3-yl)-cyclopropyl-methanol]: the figures for the IC50 in experiment [1] and in experiment [2] were 1040 nM and 2660 nM, respectively.

On to `CC1(C)CC(C(O)c2c(C3CC3)sc3cncn23)C1` (racemic) [Example 36, rac-(2-Cyclopropyl-imidazo[5,1-b]thiazol-3-yl)-(3,3-dimethyl-cyclobutyl)-methanol], for which the IC50 stood at 5.38 nM in experiment [1] and 269 nM in experiment [2].

Turning to `CCn1cc(C(O)c2c(C3CC3)sc3cncn23)nn1` (racemic) [Example 193, rac-(2-Cyclopropyl-imidazo[5,1-b]thiazol-3-yl)-(1-ethyl-1H-[1,2,3]triazol-4-yl)-methanol], the IC50 in experiment [1] is 498 nM; in experiment [2], greater than 10200 nM.

On to `CC1CCC(C(O)c2c(C3CC3)sc3cncn23)C1` (centres unmarked) [Example 30, (2-Cyclopropyl-imidazo[5,1-b]thiazol-3-yl)-(3-methyl-cyclopentyl)-methanol], for which the IC50 in experiment [1] turned out to be 12.1 nM; in experiment [2] it was 454 nM.

In the case of `OC1CCC(CC(O)c2c(C3CC3)sc3cncn23)CC1` (racemic) [Example 152, rac-4-[2-(2-Cyclopropyl-imidazo[5,1-b]thiazol-3-yl)-2-hydroxy-ethyl]-cyclohexanol], the IC50 was 18.4 nM in experiment [1] and 1130 nM in experiment [2].

Regarding `Cc1sc2cncn2c1C(O)C1(C)CCCC1` (racemic) [Example 140, rac-(1-Methyl-cyclopentyl)-(2-methyl-imidazo[5,1-b]thiazol-3-yl)-methanol], the IC50 in experiment [1] was 30 nM; in experiment [2], 19.9 nM.

With `Cc1ccccc1CC(O)c1c(C2CC2)sc2cncn12` (racemic) [Example 61, rac-1-(2-Cyclopropyl-imidazo[5,1-b]thiazol-3-yl)-2-o-tolyl-ethanol], the IC50 turned out to be 431 nM in experiment [1] and 578 nM in experiment [2].

Regarding `OC(CC1CC(F)(F)C1)c1c(C2CC2)sc2cncn12` (racemic) [Example 21, rac-1-(2-Cyclopropyl-imidazo[5,1-b]thiazol-3-yl)-2-(3,3-difluoro-cyclobutyl)-ethanol], the values for the IC50 in experiment [1] and in experiment [2] were 113 nM and 470 nM, respectively.

For `CCc1sc2cncn2c1[C@@H](O)CC1CCCCC1` [Example 100a, (S)-2-Cyclohexyl-1-(2-ethyl-imidazo[5,1-b]thiazol-3-yl)-ethanol], the figures for the 50% inhibitory concentration (IC50) in experiment [1] and in experiment [2] were 7.82 nM and 202 nM, respectively.

In the case of `CCNC1CCC(CC(O)c2c(C3CC3)sc3cncn23)CC1` (racemic) [Example 160, rac-1-(2-Cyclopropyl-imidazo[5,1-b]thiazol-3-yl)-2-(4-ethylamino-cyclohexyl)-ethanol], the IC50 in experiment [1] was 2370 nM; in experiment [2] it was greater than 10200 nM.

Regarding `OC(CC1CCC(c2ccccc2)C1)c1c(C(F)(F)F)sc2cncn12` (centres unmarked) [Example 112, 2-(3-Phenyl-cyclopentyl)-1-(2-trifluoromethyl-imidazo[5,1-b]thiazol-3-yl)-ethanol], the results for the IC50 in experiment [1] and in experiment [2] were 666 nM and greater than 10200 nM, respectively.

For the molecule `Cc1sc2cncn2c1C(O)C1CCCC1` (racemic) [Example 113, rac-Cyclopentyl-(2-methyl-imidazo[5,1-b]thiazol-3-yl)-methanol], the IC50 amounted to 149 nM in experiment [1] and 206 nM in experiment [2].

Take `OC(c1c(C2CC2)sc2cncn12)C12CCC(c3ccccc3)(C1)C2` (racemic) [Example 190, rac-(2-Cyclopropyl-imidazo[5,1-b]thiazol-3-yl)-(4-phenyl-bicyclo[2.1.1]hex-1-yl)-methanol]: the IC50 in experiment [1] came out at 61.2 nM; in experiment [2], 891 nM.

As to `OC(c1ccccc1Cl)c1c(C2CC2)sc2cncn12` (racemic) [Example 164, rac-(2-Chloro-phenyl)-(2-cyclopropyl-imidazo[5,1-b]thiazol-3-yl)-methanol], the IC50 in experiment [1] amounted to 1120 nM; in experiment [2], 3020 nM.

For the molecule `CC(C)(C)c1sc2cncn2c1C(O)CC1CCCCC1` (racemic) [Example 12, rac-1-(2-(tert-Butyl)imidazo[5,1-b]thiazol-3-yl)-2-cyclohexylethan-1-ol], the IC50 in experiment [1] came out at 895 nM; in experiment [2] it was 2130 nM.

On to `OC(c1c(-c2ccsc2)sc2cncn12)C1CCCCC1` (racemic) [Example 94, rac-Cyclohexyl-(2-thiophen-3-yl-imidazo[5,1-b]thiazol-3-yl)-methanol], for which the figures for the IC50 in experiment [1] and in experiment [2] were 144 nM and 181 nM, respectively.

For `CC1(C(O)c2c(C3CC3)sc3cncn23)CCCCCC1` (racemic) [Example 166, rac-(2-Cyclopropyl-imidazo[5,1-b]thiazol-3-yl)-(1-methyl-cycloheptyl)-methanol], the IC50 in experiment [1] is 32.1 nM; in experiment [2], 310 nM.

On to `Cc1sc2cncn2c1[C@@H](O)C1(C)CCCC1` [Example 140a, (S)-(1-Methyl-cyclopentyl)-(2-methyl-imidazo[5,1-b]thiazol-3-yl)-methanol], for which the IC50 in experiment [1] is 23.9 nM; in experiment [2], 15.8 nM.

As to `CC1(C)CCC(C(O)c2c(C(F)(F)F)sc3cncn23)CC1` (racemic) [Example 161, rac-(4,4-Dimethyl-cyclohexyl)-(2-trifluoromethyl-imidazo[5,1-b]thiazol-3-yl)-methanol], the figures for the IC50 in experiment [1] and in experiment [2] were 58.3 nM and 2770 nM, respectively.

Regarding `OC(CC1CCCC1c1ccccc1)c1c(C2CC2)sc2cncn12` (centres unmarked) [Example 135, 1-(2-Cyclopropyl-imidazo[5,1-b]thiazol-3-yl)-2-(2-phenyl-cyclopentyl)-ethanol], the results for the half-inhibitory concentration (IC50) in experiment [1] and in experiment [2] were 139 nM and 3770 nM, respectively.

As to `OC(c1c(C2CC2)sc2cncn12)C1CCC(c2ccccc2)CC1` (racemic) [Example 73, rac-(2-Cyclopropyl-imidazo[5,1-b]thiazol-3-yl)-(4-phenyl-cyclohexyl)-methanol], the half-maximal inhibitory concentration (IC50) in experiment [1] was found to be 43.7 nM; in experiment [2], 3110 nM.
